Laboratory results taken from US12677825B2, “Composition for protecting islet transplantation” (LG CHEM, LTD., priority 2020, dated 2026).

Tests used:
[1] = tested on: wild type C57BL/6 mouse islets; assay: Effects of Compound 1 during isolation on wild type mouse islets (viability, function, cytokine expression); assay type: cell-based; settings: Compound 1 during islet isolation; FIG. 2
Description: (§1) Mouse islets were isolated from 10- to 12-week-old hIAPP^+/− and C57BL/6 mice as described previously. Briefly, 0.8 mg/mL of collagenase P (Roche, Indianapolis, IN, USA) in Hank's buffered saline solution (HBSS, Sigma-Aldrich, St. Louis, MO, USA) with or without 20 μM Compound 1 were infused into the common bile duct for mouse pancreas digestion. Islets were purified from the digested pancreas using a Ficoll (Biochrom, Berlin, Germany) gradient and washed several times with 1 xHBSS. Isolated islets were cultured while free-floating in 10 mL of RPMI 1640 (Gibco, Grand Island, NY, USA). The medium was supplemented with 10% heat-inactivated FBS (fetal bovine serum) at 37° C. and 5% CO2 incubation prior to the ex vivo and in vivo studies.

[2] = tested on: STZ-induced diabetic hIAPP+/− FVB/N mice; assay: Marginal mass renal subcapsular islet transplantation, islets isolated with or without Compound 1; assay type: in vivo, mouse
Description: as §1
(§2) A marginal mass renal subcapsular islet transplantation model was used to assess the in vivo islet function of hIAPP^+/− mice. To induce diabetes, 180 mg/kg of streptozotocin (STZ, Sigma-Aldrich) was administered to 8- to 10-week-old FVB/N mice. Mice were considered to have diabetes when two consecutive blood glucose level readings were higher than 300 mg/dL. Equal amounts (400 IEQ of islets per recipient) of islets isolated from hIAPP^+/− mice were allocated to the following two groups: culture medium supplemented with 0.625% BSA (BSA group) and 0.625% BSA plus Compound 1 (BSA+Compound 1 group) to evaluate the combined effect of Compound 1 on islet mass and function during ex vivo culture. After culture for 72 hours, islets were transplanted into the renal subscapular space of diabetic hIAPP^+/− mice. The IE number was calculated using the Ricordi algorithm by classifying islets according to their diameter. After islet transplantation, non-fasting blood glucose levels were measured three times a week for the first 2 weeks and twice a week for the last 2 weeks.
(§3) At 4 weeks after transplantation, the transplantation site on the kidney of mouse were removed and embedded in paraffin. Immunohistochemical staining is briefly explained in the following. After deparaffinization, 4-μm tissue sections were stained with the polyclonal guinea pig anti-insulin antibody (1:1000, A0546, DAKO, Denmark), glucacon (1:500, ab92517, abcam, United Kingdom) and amyloid (1:2500, #44-344, Invitrogen). Stained slides were observed using an Olympus BX40 light microscope (Olympus, Japan) with […] numeric aperture and ×40/0.75 numeric aperture objectives. Photographic images were collected with a digital camera (Olympus DP50) and analyzed using the Image-Pro Plus 5.1 software.
(§4) For quantification of the DAB-labeled β-cells, all slides were imaged at 10× on a Vectra 3.0 automated quantitative pathology imaging system and analyzed using inForm software (all from Perkin-Elmer, Waltham, MA, USA). The transplanted renal tissue sections were scanned for image acquisition and then to set the transplanted tissue segmentation, a number of representative regions of transplanted islet cells and regions to be excluded from the analysis such as renal tissues were examined by learn-by-example interface. For the β-cell segmentation, a spectral library was used to identify the hematoxylin-stained nuclei and the DAB-stained cytoplasm (β-cells) within the transplanted tissue. With these training sets, the algorithm for identifying only the DAB-stained cells in the transplanted tissue was verified. All the captured 10× images were analyzed, and the DAB-stained transplanted β-cells were counted.

RINm5F cells = assay: tert-butyl hydroperoxide (tBHP) exposure of RINm5F cells; assay type: cell-based, rat; settings: Compound 1 supplementation
Description: Islets were isolated from heterozygous human islet amyloid polypeptide transgenic (hIAPP^+/−)FVB/N mice (Jackson Laboratory, Bar Harbor, ME, USA), […] mice (Orientbio, Sungnam, Korea), and cynomolgus monkeys (Macaca fascicularis; Orientbio, Sungnam, Korea). For additional in vitro studies, rat insulinoma cells (RINm5F cells) were treated with or without Compound 1 during culture under tert-butyl hydroperoxide (tBHP) exposure or serum deprivation condition. RINm5F cells were suspended in DMEM medium (Gibco, Grand Island, NY, USA) containing 100 IU/mL penicillin and 100 μg/mL streptomycin, and cultured at 37° C. in a fully humidified 5% CO2 atmosphere. All experimental protocols in this study were approved by the Institutional Animal Care and Use Committee (IACUC) of Samsung Biomedical Research Institute.

[3] = tested on: hIAPP+/− FVB/N mice islets; assay: AO/PI staining viability during serum-deprived culture; assay type: cell-based, mouse; settings: BSA culture 72 hours, with Compound 1 vs BSA alone; FIGS. 6A, 6B
Description: Purified hIAPP^+/− FVB/N and C57BL/6J mouse were suspended in RPMI 1640 (Gibco, Grand Island, NY, USA) containing 100 IU/mL penicillin and 100 μg/mL streptomycin, and cultured at 37° C. in a fully humidified 5% CO2 atmosphere. Purified NHP islets were suspended in CMRL 1066 medium (Coming Life Sciences, Tewksbury, MA; catalog number 99-663-CV) containing 100 IU/mL penicillin and 100 μg/mL streptomycin, and cultured at 37° C. in a fully humidified 5% CO2 atmosphere. […]
Islet viability after isolation and culture was assessed using double fluorescence in acridine orange (0.67 […]) and propidium iodide (75 […]) (AO/PI) staining to visualize the living and dead islet cells simultaneously. Fluorescent imaging was performed with a fluorescence microscope (Nikon ECLIPSE 80i, Tokyo, Japan) and live and dead areas were quantified using NIS-Element AR 3.0 (Nikon). The islet viability (%) was calculated as living islet cells/total islet cells×100.

[4] = tested on: STZ-induced diabetic hIAPP+/− FVB/N mice; assay: Marginal mass islet transplantation after serum-deprived culture with or without Compound 1; assay type: in vivo, mouse
Description: as §2, §3, §4

O=S1(=O)CCN(Cc2cc(NC3CCOCC3)c3[nH]c(-c4ccccc4)cc3c2)CC1 [Compound 1]
reproduction of isolation results (viability, function, pro-inflammatory cytokine expression) in wild type islets [1]: reproduced | diabetes reversal rate ([2]; islets isolated with Compound 1, vs control group, FIG. 3C): better | proportion of insulin positive area in the grafted tissue ([2]; islets isolated with Compound 1, vs control group, FIG. 3F): greater | glucose levels during intraperitoneal glucose tolerance test (IPGTT) ([2]; islets isolated with Compound 1, vs control group, FIGS. 3D, 3E): better | post-transplant glucose levels ([2]; islets isolated with Compound 1, vs non-treated group, FIG. 3B): markedly lower | glycemia after removal of the grafted kidney ([2]; islets isolated with Compound 1, FIG. 3B): regain of hyperglycemia | cellular toxicity (LDH release) (RINm5F cells; FIG. 4A): markedly reduced | ROS contents (RINm5F cells; FIG. 4B): markedly reduced | cell viability assessed by AO/PI staining [3]: significantly improved | insulin positive area in the grafted tissue ([4]; islets cultured 72 hours with Compound 1, vs control group, FIG. 7F): greater | posttransplant glucose levels ([4]; islets cultured 72 hours with Compound 1, vs control, FIG. 7B): significantly better | diabetes reversal rate ([4]; islets cultured 72 hours with Compound 1, vs control, FIG. 7C): significantly better | glucose levels during IPGTT ([4]; islets cultured 72 hours with Compound 1, vs control, FIG. 7D): significantly better | AUC of glucose during IPGTT ([4]; islets cultured 72 hours with Compound 1, vs control, FIG. 7E): significantly better
